Assay results: ChEMBL document CHEMBL1201862, “PubChem BioAssay data set” (2004)
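The compound was tested at five concentrations on cells cultured in 96-well plates, with a 48-hour exposure period. GI50 = concentration required for 50% inhibition of growth.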 Activity calls are given as the source filed them. Cut-off read from the data, not from the text of the source: active = GI50 up to about 1.1 µM and inactive = higher.

Tests used:
Assay in all cases: NCI tumour cell line growth inhibition, 48 h
K562 = tested on: K562
OVCAR-5 = tested on: OVCAR-5
HL-60 = tested on: HL-60
SN12C = tested on: SN12C
KM-20L2 = tested on: KM-20L2
RXF 393 = tested on: RXF 393
UO-31 = tested on: UO-31
DMS-114 = tested on: DMS-114
MOLT-4 = tested on: MOLT-4
786-0 = tested on: 786-0
RPMI-8226 = tested on: RPMI-8226
A498 = tested on: A498
U-251 = tested on: U-251
SW-620 = tested on: SW-620
OVCAR-4 = tested on: OVCAR-4
RXF 631 = tested on: RXF 631
IGROV-1 = tested on: IGROV-1
NCI-H460 = tested on: NCI-H460
CAKI-1 = tested on: CAKI-1
A549 = tested on: A549
OVCAR-8 = tested on: OVCAR-8
OVCAR-3 = tested on: OVCAR-3
UACC-62 = tested on: UACC-62
HT-29 = tested on: HT-29
SK-MEL-28 = tested on: SK-MEL-28
SNB-75 = tested on: SNB-75
Malme-3M = tested on: Malme-3M
HOP-62 = tested on: HOP-62
HCT-15 = tested on: HCT-15
KM12 = tested on: KM12
SF-268 = tested on: SF-268
EKVX = tested on: EKVX
XF498 = tested on: XF498
M19-MEL = tested on: M19-MEL
SNB-78 = tested on: SNB-78
CCRF-CEM = tested on: CCRF-CEM
SK-MEL-2 = tested on: SK-MEL-2
HOP-18 = tested on: HOP-18
M14 = tested on: M14
LXFL 529 = tested on: LXFL 529
NCI-H226 = tested on: NCI-H226
NCI-H23 = tested on: NCI-H23
NCI-H522 = tested on: NCI-H522
SNB-19 = tested on: SNB-19
HCC 2998 = tested on: HCC 2998
SF-539 = tested on: SF-539
SK-MEL-5 = tested on: SK-MEL-5
SF-295 = tested on: SF-295
TK-10 = tested on: TK-10
DMS-273 = tested on: DMS-273
COLO 205 = tested on: COLO 205
HCT-116 = tested on: HCT-116
SK-OV-3 = tested on: SK-OV-3
HOP-92 = tested on: HOP-92
LOX IMVI = tested on: LOX IMVI
UACC-257 = tested on: UACC-257
ACHN = tested on: ACHN
DLD-1 = tested on: DLD-1
SR = tested on: SR

Question: Which results are given for `Cc1nc2c(nc1C)C(=O)C1=C(C2=O)C2C=CC1CC2`?
Answer: GI50 (K562): 2.48 µM (inactive); GI50 (OVCAR-5): 21.3 µM (inactive); GI50 (HL-60): 1.44 µM (inactive); GI50 (SN12C): 16.7 µM (inactive); GI50 (KM-20L2): 23.3 µM (inactive); GI50 (RXF 393): 6.79 µM (inactive); GI50 (UO-31): 12.6 µM (inactive); GI50 (DMS-114): 1.75 µM (inactive); GI50 (MOLT-4): 1.32 µM (inactive); GI50 (786-0): 11.9 µM (inactive); GI50 (RPMI-8226): 2.17 µM (inactive); GI50 (A498): 41.9 µM (inactive); GI50 (U-251): 5.35 µM (inactive); GI50 (SW-620): 2.74 µM (inactive); GI50 (OVCAR-4): 1.93 µM (inactive); GI50 (RXF 631): 6.15 µM (inactive); GI50 (IGROV-1): 2.63 µM (inactive); GI50 (NCI-H460): 17.9 µM (inactive); GI50 (CAKI-1): 18.3 µM (inactive); GI50 (A549): 19.4 µM (inactive); GI50 (OVCAR-8): 3.48 µM (inactive); GI50 (OVCAR-3): 5.83 µM (inactive); GI50 (UACC-62): 2.86 µM (inactive); GI50 (HT-29): 13.9 µM (inactive); GI50 (SK-MEL-28): 18.3 µM (inactive); GI50 (SNB-75): 28.6 µM (inactive); GI50 (Malme-3M): 11.8 µM (inactive); GI50 (HOP-62): 22.3 µM (inactive); GI50 (HCT-15): 15.1 µM; GI50 (KM12): 13.5 µM (inactive); GI50 (SF-268): 5.42 µM (inactive); GI50 (EKVX): 7 µM (inactive); GI50 (XF498): 5.65 µM (inactive); GI50 (M19-MEL): 1.75 µM (inactive); GI50 (SNB-78): 3.21 µM (inactive); GI50 (CCRF-CEM): 1.1 µM (active); GI50 (SK-MEL-2): 13.2 µM (inactive); GI50 (HOP-18): 16.4 µM (inactive); GI50 (M14): 12.8 µM (inactive); GI50 (LXFL 529): 1.75 µM (inactive); GI50 (NCI-H226): 14.5 µM (inactive); GI50 (NCI-H23): 4.04 µM (inactive); GI50 (NCI-H522): 4.35 µM (inactive); GI50 (SNB-19): 32.6 µM (inactive); GI50 (HCC 2998): 29.4 µM (inactive); GI50 (SF-539): 13.8 µM (inactive); GI50 (SK-MEL-5): 2.05 µM (inactive); GI50 (SF-295): 11.7 µM (inactive); GI50 (TK-10): 28.8 µM (inactive); GI50 (DMS-273): 14.6 µM (inactive); GI50 (COLO 205): 14.9 µM (inactive); GI50 (HCT-116): 1.54 µM (inactive); GI50 (SK-OV-3): 40.3 µM (inactive); GI50 (HOP-92): 1.97 µM (inactive); GI50 (LOX IMVI): 2.21 µM (inactive); GI50 (UACC-257): 4.31 µM (inactive); GI50 (ACHN): 11.7 µM (inactive); GI50 (DLD-1): 7.53 µM (inactive)

Question: For `Cc1cc(Cl)ccc1NC(=O)C(=O)Cc1occc(=O)c1O`, which GI50 (K562) is on record?
Answer: Its GI50 is > 100 µM (inactive).

Question: What about the GI50 (OVCAR-5) of the same molecule?
Answer: The GI50 was > 100 µM (inactive).

Question: What about the GI50 (HL-60) of the same molecule?
Answer: The GI50 was > 100 µM (inactive).

Question: And the GI50 (SN12C)?
Answer: The GI50 was > 100 µM (inactive).

Question: And the GI50 (KM-20L2)?
Answer: The GI50 was > 100 µM (inactive).

Question: And the GI50 (RXF 393)?
Answer: Its GI50 is > 100 µM (inactive).

Question: What about the GI50 (UO-31) of the same molecule?
Answer: Its GI50 is > 100 µM (inactive).

Question: And the GI50 (DMS-114)?
Answer: Its GI50 is > 100 µM (inactive).

Question: What about the GI50 (MOLT-4) of the same molecule?
Answer: Its GI50 is > 100 µM (inactive).

Question: And the GI50 (786-0)?
Answer: Its GI50 is > 100 µM (inactive).

Question: And the GI50 (RPMI-8226)?
Answer: The GI50 was > 100 µM (inactive).

Question: What about the GI50 (A498) of the same molecule?
Answer: The GI50 was > 100 µM (inactive).

Question: And the GI50 (U-251)?
Answer: Its GI50 is > 100 µM (inactive).

Question: What about the GI50 (SW-620) of the same molecule?
Answer: Its GI50 is > 100 µM (inactive).

Question: And the GI50 (OVCAR-4)?
Answer: The GI50 was > 100 µM (inactive).

Question: What about the GI50 (RXF 631) of the same molecule?
Answer: Its GI50 is > 100 µM (inactive).

Question: What about the GI50 (IGROV-1) of the same molecule?
Answer: Its GI50 is > 100 µM (inactive).

Question: What about the GI50 (NCI-H460) of the same molecule?
Answer: Its GI50 is > 100 µM (inactive).

Question: What about the GI50 (CAKI-1) of the same molecule?
Answer: The GI50 was > 100 µM (inactive).

Question: What about the GI50 (A549) of the same molecule?
Answer: The GI50 was > 100 µM (inactive).

Question: And the GI50 (OVCAR-8)?
Answer: Its GI50 is > 100 µM (inactive).

Question: And the GI50 (UACC-62)?
Answer: Its GI50 is > 100 µM (inactive).

Question: What about the GI50 (HT-29) of the same molecule?
Answer: The GI50 was > 100 µM (inactive).

Question: And the GI50 (SK-MEL-28)?
Answer: The GI50 was > 100 µM (inactive).

Question: What about the GI50 (SNB-75) of the same molecule?
Answer: The GI50 was > 100 µM (inactive).

Question: And the GI50 (Malme-3M)?
Answer: Its GI50 is > 100 µM (inactive).

Question: And the GI50 (HOP-62)?
Answer: The GI50 was > 100 µM (inactive).

Question: What about the GI50 (HCT-15) of the same molecule?
Answer: Its GI50 is greater than 100 µM.

Question: And the GI50 (KM12)?
Answer: The GI50 was > 100 µM (inactive).

Question: What about the GI50 (SF-268) of the same molecule?
Answer: The GI50 was > 100 µM (inactive).

Question: And the GI50 (EKVX)?
Answer: The GI50 was > 100 µM (inactive).

Question: And the GI50 (XF498)?
Answer: The GI50 was > 100 µM (inactive).

Question: What about the GI50 (M19-MEL) of the same molecule?
Answer: Its GI50 is > 100 µM (inactive).

Question: And the GI50 (SNB-78)?
Answer: The GI50 was > 100 µM (inactive).

Question: What about the GI50 (CCRF-CEM) of the same molecule?
Answer: The GI50 was > 100 µM (inactive).

Question: What about the GI50 (SK-MEL-2) of the same molecule?
Answer: The GI50 was > 100 µM (inactive).

Question: And the GI50 (HOP-18)?
Answer: The GI50 was > 100 µM (inactive).

Question: What about the GI50 (M14) of the same molecule?
Answer: The GI50 was > 100 µM (inactive).

Question: And the GI50 (LXFL 529)?
Answer: The GI50 was > 100 µM (inactive).

Question: What about the GI50 (NCI-H226) of the same molecule?
Answer: Its GI50 is > 100 µM (inactive).

Question: What about the GI50 (NCI-H23) of the same molecule?
Answer: The GI50 was > 100 µM (inactive).

Question: What about the GI50 (SR) of the same molecule?
Answer: The GI50 was > 100 µM (inactive).

Question: What about the GI50 (NCI-H522) of the same molecule?
Answer: Its GI50 is > 100 µM (inactive).

Question: What about the GI50 (SNB-19) of the same molecule?
Answer: The GI50 was > 100 µM (inactive).

Question: And the GI50 (HCC 2998)?
Answer: The GI50 was > 100 µM (inactive).

Question: What about the GI50 (SF-539) of the same molecule?
Answer: The GI50 was > 100 µM (inactive).

Question: And the GI50 (SK-MEL-5)?
Answer: The GI50 was > 100 µM (inactive).

Question: What about the GI50 (SF-295) of the same molecule?
Answer: Its GI50 is > 100 µM (inactive).

Question: And the GI50 (TK-10)?
Answer: Its GI50 is > 100 µM (inactive).

Question: And the GI50 (DMS-273)?
Answer: The GI50 was > 100 µM (inactive).

Question: And the GI50 (COLO 205)?
Answer: The GI50 was > 100 µM (inactive).

Question: What about the GI50 (HCT-116) of the same molecule?
Answer: The GI50 was > 100 µM (inactive).

Question: What about the GI50 (SK-OV-3) of the same molecule?
Answer: Its GI50 is > 100 µM (inactive).

Question: And the GI50 (HOP-92)?
Answer: Its GI50 is > 100 µM (inactive).

Question: What about the GI50 (LOX IMVI) of the same molecule?
Answer: Its GI50 is > 100 µM (inactive).

Question: And the GI50 (UACC-257)?
Answer: Its GI50 is > 100 µM (inactive).

Question: And the GI50 (ACHN)?
Answer: Its GI50 is > 100 µM (inactive).

Question: What about the GI50 (DLD-1) of the same molecule?
Answer: The GI50 was > 100 µM (inactive).
